The values below come from patent publication US9157054B2, “Device and method for preparing microparticles” (The University of Queensland, priority 2007, dated 2015).

A short description of series [1]: Particle size by optical microscopy. In kind it is physicochemical. From the text:
Alginate gel microparticles were examined using an optical microscope (Zeiss, AXIOSCOP 40) with […] attachment (AXIOCam MRm). The morphology and particle size of GS-loaded alginate microparticles were characterized according to the methods described above. The morphology of insulin-loaded alginate gel microparticles and the particle size were characterized according to the methods described above. The morphology and particle size was characterized according to the methods described above.

For series [2] the following is noted: British Pharmacopoeia 2008; cited from earlier work.
The nature of the next series: physchem. To be noted: aqueous buffer.

Structures are written as SMILES. ≈ marks a conversion by molar mass, not a printed value. Where “and” joins values, the source holds several entries; their conditions need not be identical. Equal values may be shown once.

Broadly, the solubility is the dissolved amount per volume that the medium holds. Lower therefore signals little dissolved substance. Regarding `CC(C)Cc1ccc(C(C)C(=O)O)cc1` (centres unmarked) [ibuprofen], in series [1] ('as received' powder, before size reduction), the powder particle size was 30-100 micron and 30-40 micron. Further, the “crystal / powder particle size” value in series [1] (after precipitation from acetone into alginate solution, optical microscope) was 10-15 microns. Further, in series [2], the “solubility in acetone, methanol and dichloromethane (DCM)” value is “freely soluble”; the solubility in water entry was “practically insoluble”. Moreover, in the series “physchem”, the concentration in solution (solubility) came to 300 µg/mL (≈ 1450 µM).
